These results are taken from patent US20260083701A1, “COMPOSITIONS, FORMULATIONS, AND METHODS FOR TREATMENT OF INFLAMMATORY CONDITIONS” (Oddity Labs, LLC, priority 2023, published 2026).

Assay [1] deals with IL-4. As to the kind of experiment: Functional Th2-blocking activity: IL-4 expression in primary human Th2 cells (intracellular flow cytometry). Type of assay: cell-based. Particulars: primary human CD4+ Th2 cells; for % Normalized Reduction of Cytokine Expression From Baseline in CD4+ T Cells IL-4: normalized against vehicle control (water), 3 days co-culture, PMA/ionomycin 6 hours; for Expression of Cytokine following Stimulation (% X Positive among CD4+ T cells) IL-4: 3 days co-culture with compound, PMA/ionomycin stimulation 6 hours. An excerpt:
(§1) To produce T helper 2 (Th2) cells, peripheral blood mononuclear cells (PBMCs) were harvested from healthy donor leukopaks using Ficoll gradients. Naive CD4+ T cells were further isolated, then activated using TransAct or Dynabeads (depending on the donor). CD4+ T cells were activated for two days in the presence of low dose IL-2 (30 IU/mL) in X-VIVO-15 media containing 5% human AB serum (activation cycle). On the second day, the media was exchanged and supplemented with interleukin 4 (IL-4) (20 ng/mL), anti-IFN-gamma antibody (1 μg/mL), and interleukin 2 (IL-2) (rest cycle). The cells were cultured for an additional five days then evaluated for Prostaglandin D2 receptor 2 (DP2 or CRTH2) expression and IL-4 and interleukin 13 (IL-13) expression following phorbol myristate acetate (PMA)/ionomycin stimulation. If the expression of CRTH2 was >50%, the cells were frozen and used in Th2 IL-4/IL-13 bioactivity assays. If the expression of CRTH2 <50%, then the cells were restimulated using TransAct (or Dynabeads) and maintained on similar cycles of activation (2 days) and rest (5 days), until the expression of CRTH2 exceeded 50%. Typically, no more than 4 cycles are needed before the Th2 cells may be harvested and frozen.
(§2) For testing the ability of a compound or salt of the present disclosure to reduce the expression of IL-4 and IL-13 was tested in primary human Th2 cells, the abovementioned cells were thawed, then cultured for one day in IL-2 containing media. The Th2 cells were treated with compounds added at varying concentrations for three days, after which, the cells were washed, and stimulated with PMA/ionomycin for 6 hrs prior to readabout via intracellular flow cytometry.
(§3) The ability of a compound or salt of the present disclosure to reduce the expression of IL-4 and IL-13 was tested in primary human Th2 cells. Naive, primary human CD4+ T cells were isolated from healthy donors and differentiated into Th2 cells using a combination of IL-4 cytokine and anti-IFN-gamma antibody, based on a modified protocol from Scott et al (Activation of Th2 cells downregulates CRTh2 through an NFAT1 mediated mechanism. PLoS One. 2018 Jul. 3; 13(7):e0199156). Th2 cells were CRTH2+ and expressed IL-4 and IL-13 following PMA/ionomycin stimulation. Prior to PMA/ionomycin stimulation, Th2 cells were co-cultured with a compound or salt of the present disclosure for 3 days and then stimulated for 6 hours. Intracellular flow cytometry was performed to investigate the expression of IL-4 and IL-13 among stimulated CD4+ Th2 cells. The compound or salt was evaluated across a 2-log concentration range. Th2 cells were cultured in X-VIVO-15 media with human AB serum and supplemented with low dose IL-2 (30 IU/mL). The antibody panel that was used is listed below. All antibodies were obtained from Biolegend.
(§4) Description of Calculation for: (1) Expression of Cytokine following Stimulation (% X Positive among CD4+ T cells), and (2) % Normalized Reduction of Cytokine Expression From Baseline in CD4+ T Cells
(§5) The expression of IL-4 and IL-13 was measured based on positive gated fractions among CD4+ Th2 cells. The number is expressed as a positive percentage, determined based on the fluorescence-minus-one (FMO) control. The max percent is 100%. The normalized reduction value uses the vehicle control (water) to normalize against using the following percent change formula. (Cmpd: compound)

In assay [2] the test system is IL-13. Put plainly: Functional Th2-blocking activity: IL-13 expression in primary human Th2 cells (intracellular flow cytometry). Type of assay: cell-based. The note with it: for Expression of Cytokine following Stimulation (% X Positive among CD4+ T cells) IL-13: 3 days co-culture with compound, PMA/ionomycin stimulation 6 hours; for % Normalized Reduction of Cytokine Expression From Baseline in CD4+ T Cells IL-13: normalized against vehicle control (water), 3 days co-culture, PMA/ionomycin 6 hours.
Description: as §1, §2, §3, §4, §5

For the compound `O=C(C1CCc2cn[nH]c2C1)N1C[C@H]2CCC[C@@]2(c2nc(-c3ccccc3)no2)C1` (stereo in doubt) [IV-1, 6-[(3aS,6aS)-3a-(3-phenyl-1,2,4-oxadiazol-5-yl)-octahydrocyclopenta[c]pyrrole-2-carbonyl]-4,5,6,7-tetrahydro-1H-indazole], in assay [1], the “% Normalized Reduction of Cytokine Expression From Baseline in CD4+ T Cells IL-4” value (“% Normalized Reduction … in CD4+ T Cells IL-4” for short) is “C (C represents 20% to less than 25%)” and the “Expression of Cytokine following Stimulation (% X Positive among CD4+ T cells) IL-4” value was “B (B represents 30% to less than 35%)”. In addition, in assay [2], the “Expression of Cytokine following Stimulation (% X Positive among CD4+ T cells) IL-13” value is on record as “C (C represents 14% to less than 18%)” and the “% Normalized Reduction of Cytokine Expression From Baseline in CD4+ T Cells IL-13” value (“% Normalized Reduction … in CD4+ T Cells IL-13” below) is given as “C (C represents 40% to less than 50%)”.
The matching figures for `O=C1CCC(N2Cc3c(OCC(=O)N4CCCC(c5ccccn5)C4)cccc3C2=O)C(=O)N1` (stereo not drawn) [Compound V-2, 3-(1-oxo-4-{2-oxo-2-[3-(pyridin-2-yl)piperidin-1-yl]ethoxy}-2,3-dihydro-1H-isoindol-2-yl)piperidine-2,6-dione]: “D (D represents 25% or greater)”, “A (A represents 0% to less than 30%)”, “B (B represents 10% to less than 14%)” and “D (D represents 50% or greater)”.
Consider `O=C(Nc1cccc(-c2ccc3nnc(-c4ccncc4)n3n2)c1)c1ccc(Cl)nc1` [III-2, 6-chloro-N-{3-[3-(pyridin-4-yl)-[1,2,4]triazolo[4,3-b]pyridazin-6-yl]phenyl}pyridine-3-carboxamide], for which, in assay [1], the “% Normalized Reduction … in CD4+ T Cells IL-4” value was “C (C represents 20% to less than 25%)” and the “Expression of Cytokine following Stimulation (% X Positive among CD4+ T cells) IL-4” value was “B (B represents 30% to less than 35%)”. In assay [2], the “Expression of Cytokine following Stimulation (% X Positive among CD4+ T cells) IL-13” value is “C (C represents 14% to less than 18%)” and the “% Normalized Reduction … in CD4+ T Cells IL-13” value is “C (C represents 40% to less than 50%)”.
For the compound `CCNC(=O)COc1cccc(NC(=O)c2sccc2-n2c(C)ccc2C)c1` [III-3, 3-(2,5-dimethyl-1H-pyrrol-1-yl)-N-{3-[(ethylcarbamoyl)methoxy]phenyl} thiophene-2-carboxamide], in assay [1], the “% Normalized Reduction … in CD4+ T Cells IL-4” value is recorded as “B (B represents 15% to less than 20%)” and the “Expression of Cytokine following Stimulation (% X Positive among CD4+ T cells) IL-4” value is listed as “B (B represents 30% to less than 35%)”. Also, in assay [2], the “Expression of Cytokine following Stimulation (% X Positive among CD4+ T cells) IL-13” value was “B (B represents 10% to less than 14%)” and the “% Normalized Reduction … in CD4+ T Cells IL-13” value is reported as “D (D represents 50% or greater)”.
In the case of `Cc1cc(NC(=O)CC23CC4CC(CC(C4)C2)C3)cc(-c2nc3ncccc3o2)c1O` [III-4, 2-(1-adamantyl)-N-(4-hydroxy-3-methy1-5-[1,3]oxazolo[4,5-b]pyridin-2-ylphenyl)acetamide], in assay [1], the “% Normalized Reduction … in CD4+ T Cells IL-4” value was “C (C represents 20% to less than 25%)” and the “Expression of Cytokine following Stimulation (% X Positive among CD4+ T cells) IL-4” value was “B (B represents 30% to less than 35%)”. For the same compound, in assay [2], the “Expression of Cytokine following Stimulation (% X Positive among CD4+ T cells) IL-13” value is “C (C represents 14% to less than 18%)” and the “% Normalized Reduction … in CD4+ T Cells IL-13” value was “B (B represents 30% to less than 40%)”.
On to `O=C(Cc1c[nH]c2ccccc12)Nc1cccc(-c2ccc3nnc(-c4cccnc4)n3n2)c1` [III-5, 2-(1H-indol-3-yl)-N-{3-[3-(pyridin-3-yl)-[1,2,4]triazolo[4,3-b]pyridazin-6-yl]phenyl}acetamide], for which, in assay [1], the “% Normalized Reduction … in CD4+ T Cells IL-4” value is “A (A represents 0% to less than 15%)” and the “Expression of Cytokine following Stimulation (% X Positive among CD4+ T cells) IL-4” value was “C (C represents 35% to less than 40%)”. Also, in assay [2], the “Expression of Cytokine following Stimulation (% X Positive among CD4+ T cells) IL-13” value was “B (B represents 10% to less than 14%)” and the “% Normalized Reduction … in CD4+ T Cells IL-13” value is “D (D represents 50% or greater)”.
Turning to `O=C(Cc1ncc(C(F)(F)F)cc1Cl)Nc1ccc(N2CCOCC2)cc1` [III-6, 2-[3-chloro-5-(trifluoromethyl)pyridin-2-yl]-N-[4-(morpholin-4-yl)phenyl]acetamide], in assay [1], the “% Normalized Reduction … in CD4+ T Cells IL-4” value is on record as “B (B represents 15% to less than 20%)” and the “Expression of Cytokine following Stimulation (% X Positive among CD4+ T cells) IL-4” value is listed as “B (B represents 30% to less than 35%)”. In assay [2], the “Expression of Cytokine following Stimulation (% X Positive among CD4+ T cells) IL-13” value was “C (C represents 14% to less than 18%)” and the “% Normalized Reduction … in CD4+ T Cells IL-13” value was “B (B represents 30% to less than 40%)”.
In the case of `O=C(Nc1cccc(NC(=O)c2ccc3[nH]c4c(c3c2)CCCC4)c1)c1ccccc1` [III-7, N-(3-benzamidophenyl)-2,3,4,9-tetrahydro-1H-carbazole-6-carboxamide], in assay [1], the “% Normalized Reduction … in CD4+ T Cells IL-4” value was “D (D represents 25% or greater)” and the “Expression of Cytokine following Stimulation (% X Positive among CD4+ T cells) IL-4” value is “A (A represents 0% to less than 30%)”. In addition, in assay [2], the “Expression of Cytokine following Stimulation (% X Positive among CD4+ T cells) IL-13” value is reported as “B (B represents 10% to less than 14%)” and the “% Normalized Reduction … in CD4+ T Cells IL-13” value is given as “D (D represents 50% or greater)”.
`Cc1nnc(-c2cccc(-c3noc(-c4c[nH]c(=O)c5ccccc45)n3)c2)[nH]1` [IV-2, 4-{3-[3-(5-methyl-4H-1,2,4-triazol-3-yl)phenyl]-1,2,4-oxadiazol-5-yl}-1,2-dihydroisoquinolin-1-one]: in assay [1], the “% Normalized Reduction … in CD4+ T Cells IL-4” value is “D (D represents 25% or greater)” and the “Expression of Cytokine following Stimulation (% X Positive among CD4+ T cells) IL-4” value was “B (B represents 30% to less than 35%)”. In assay [2], the “Expression of Cytokine following Stimulation (% X Positive among CD4+ T cells) IL-13” value is given as “B (B represents 10% to less than 14%)” and the “% Normalized Reduction … in CD4+ T Cells IL-13” value is “D (D represents 50% or greater)”.
Take `O=c1c2ccccc2c(-c2nc(-c3ccccc3Cl)no2)nn1-c1ccccc1` [IV-3, 4-[3-(2-chlorophenyl)-1,2,4-oxadiazol-5-yl]-2-phenyl-1,2-dihydrophthalazin-1-one]: in assay [1], the “% Normalized Reduction … in CD4+ T Cells IL-4” value was “C (C represents 20% to less than 25%)” and the “Expression of Cytokine following Stimulation (% X Positive among CD4+ T cells) IL-4” value is “B (B represents 30% to less than 35%)”. In addition, in assay [2], the “Expression of Cytokine following Stimulation (% X Positive among CD4+ T cells) IL-13” value is given as “C (C represents 14% to less than 18%)” and the “% Normalized Reduction … in CD4+ T Cells IL-13” value is listed as “B (B represents 30% to less than 40%)”.
The matching figures for `O=C(NC1CCN(C(=O)c2cn(-c3ccc(F)cc3)nn2)CC1)c1cc2ccccc2[nH]1` [VI-1, N-{1-[1-(4-fluorophenyl)-1H-1,2,3-triazole-4-carbonyl]piperidin-4-yl}-1H-indole-2-carboxamide]: “D (D represents 25% or greater)”, “B (B represents 30% to less than 35%)”, “C (C represents 14% to less than 18%)” and “B (B represents 30% to less than 40%)”.
For `O=C(NCCn1ccc2ccccc21)NC1CC(=O)N(c2cccc(F)c2)C1` (stereo not drawn) [VI-2, 3-[1-(3-fluorophenyl)-5-oxopyrrolidin-3-y1]-1-[2-(1H-indol-1-yl)ethyl]urea], in that order: “D (D represents 25% or greater)”, “B (B represents 30% to less than 35%)”, “D (D represents 18% or greater)” and “A (A represents 0% to less than 30%)”.
